Reference: patent US11285156B2, “Substituted piperazines as KRAS G12C inhibitors” (Amgen Inc., priority 2018, dated 2022)
Like-named read-outs stand apart in the source and are kept apart here.

Assays:
[1] = target: GDP-bound KRAS protein (aa 1-169), containing both G12C and C118A amino acid substitutions (Homo sapiens (Human), UniProt P01116, C118A/G12C); assay: Coupled nucleotide exchange assay (SOS-mediated nucleotide exchange, AlphaScreen); type: biochemical; conditions: 5 min compound pre-incubation; for IC50: read-out: Coupled exchange IC50 (5 min; μM)
[2] = tested on: Phosphorylation of ERK1/2 in MIA PaCa-2 cells; assay: Phospho-ERK1/2 MSD assay in MIA PaCa-2 cells; type: cell-based; conditions: Homo sapiens, MIA PaCa-2, 2 h, read-out: p-ERK IC50 (2 h, MiaPaCa-2; μM)
Method in brief: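 Phospho-ERK1/2 measured by MSD electrochemiluminescence kit in RIPA lysates of MIA PaCa-2 cells. Cells were treated with compound titrations for 2 or 4 h at 37 °C, 5% CO2, followed by a 10 min pulse of 10 ng/mL EGF.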

[3] = tested on: Phosphorylation of ERK1/2 in A549 cells; assay: Phospho-ERK1/2 MSD assay in A549 cells; type: cell-based; conditions: Homo sapiens, A549, 2 h, read-out: p-ERK IC50 (2 h, A549; μM)
Method in brief: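 MSD electrochemiluminescent read-out of phospho-ERK1/2 in RIPA lysates. Cells in RPMI 1640 with 10% FBS received titrated compound for 2 or 4 h, then 10 ng/mL EGF for 10 min before ice-cold PBS wash and lysis.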

[4] = 2 h compound treatment, MIA PaCa-2 cells, EGF stimulated
[5] = 2 h compound treatment, A549 cells, EGF stimulated

GDP-bound KRAS protein (aa 1-169), containing both G12C and C118A amino acid substitutions, sequence (P01116 other isoform, or with tags, fused parts or gaps G12C/C118A): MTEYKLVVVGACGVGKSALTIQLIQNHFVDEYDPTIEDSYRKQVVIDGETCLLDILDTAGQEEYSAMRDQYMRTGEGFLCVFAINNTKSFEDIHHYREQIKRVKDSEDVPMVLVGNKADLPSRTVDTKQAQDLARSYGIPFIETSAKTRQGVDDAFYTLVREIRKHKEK

Coupled exchange IC50 (5 min; μM) [1] [µM] | SMILES | IC50 [2, 4] [µM] | IC50 [3, 5] [µM] | IC50 [1] [µM] | IC50 [2] [µM] | IC50 [3] [µM]
0.049 | C=CC(=O)N1C[C@H](C)N(c2nc(=O)n(-c3c(C)ccnc3C(C)C)c3nc(-c4ccccc4S(C)(=O)=O)c(Cl)cc23)C[C@H]1C [Example 210, 4-((2S,5R)-4-Acryloyl-2,5-dimethylpiperazin-1-yl)-6-chloro-1-(2-isopropyl-4-methylpyridin-3-yl)-7-(2-(methylsulfonyl)phenyl)pyrido[2,3-d]pyrimidin-2(1H)-one] | 0.039 | > 7.5 |  |  | 
 | C=CC(=O)N1C[C@H](C)N(c2nc(=O)n(-c3c(C)cc([S+](C)[O-])cc3C(C)C)c3nc(-c4ccccc4C)c(Cl)cc23)C[C@H]1C (stereo partly drawn) [Example 213, 4-((2S,5R)-4-Acryloyl-2,5-dimethylpiperazin-1-yl)-6-chloro-1-(2-isopropyl-6-methyl-4-(methylsulfinyl)phenyl)-7-(o-tolyl)pyrido[2,3-d]pyrimidin-2(1H)-one] | 0.104 | > 7.5 | 0.182 |  | 
 | C=CC(=O)N1C[C@H](C)N(C2=NC(=O)CN(c3c(C)ccnc3C(C)C)c3nc(-c4ccccc4F)c(Cl)cc32)C[C@H]1C [Example 218, 5-((2S,5R)-4-Acryloyl-2,5-dimethylpiperazin-1-yl)-7-chloro-8-(2-fluorophenyl)-1-(2-isopropyl-4-methylpyridin-3-yl)-1,2-dihydro-3H-pyrido[2,3-e][1,4]diazepin-3-one] |  |  | 0.094 | 0.035 | > 7.5
 | C=CC(=O)N1C[C@H](C)N(c2nc(=O)n(-c3c(C(C)C)nc(N)nc3C(C)C)c3nc(-c4ccccc4F)c(Cl)cc23)C[C@H]1C [Example 229, 4-((2S,5R)-4-Acryloyl-2,5-dimethylpiperazin-1-yl)-1-(2-amino-4,6-diisopropylpyrimidin-5-yl)-6-chloro-7-(2-fluorophenyl)pyrido[2,3-d]pyrimidin-2(1H)-one] | 0.032 | > 7.5 | 0.071 |  | 
